Laboratory results as given in patent publication US9999619B2, “Piperidin-4-yl azetidine derivatives as JAK1 inhibitors” (Incyte Corporation, priority 2010, dated 2018).

Columns and labels:
Format in all cases: biochemical
Jak2 (a.a. 828-1132) = Jak2 (a.a. 828-1132) (Homo sapiens (Human), UniProt O60674); test: In vitro JAK kinase assay (HTRF, phosphorylation of a biotinylated peptide), JAK2; conditions: measured at 1 mM ATP
Summary of the method: (§1)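 Phosphorylation of a biotinylated peptide by purified His-tagged JAK catalytic domains (insect-cell baculovirus expression) ran 1 hr at room temperature. After stopping with EDTA, Eu-Py20 and SA-APC were bound for 40 minutes and HTRF measured.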

[1] = target: human JAK1 (a.a. 837-1142) (Homo sapiens, UniProt P23458); test: In vitro JAK kinase assay (HTRF, phosphorylation of a biotinylated peptide), JAK1; conditions: measured at 1 mM ATP
Summary of the method: as §1

[2] = target: human JAK1 (a.a. 837-1142); test: as above; conditions: ratio of JAK2 IC50 to JAK1 IC50, measured at 1 mM ATP
Summary of the method: as §1

Jak2 (a.a. 828-1132), sequence (O60674 828-1132): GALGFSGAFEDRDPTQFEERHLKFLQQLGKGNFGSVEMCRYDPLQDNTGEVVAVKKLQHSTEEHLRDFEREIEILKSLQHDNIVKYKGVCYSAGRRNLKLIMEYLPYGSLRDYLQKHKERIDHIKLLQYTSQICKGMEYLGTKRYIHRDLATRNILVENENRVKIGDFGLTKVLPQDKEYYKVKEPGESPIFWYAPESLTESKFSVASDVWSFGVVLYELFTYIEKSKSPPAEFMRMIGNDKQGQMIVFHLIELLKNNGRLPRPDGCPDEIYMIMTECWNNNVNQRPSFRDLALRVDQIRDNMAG

IC50 (Jak2 (a.a. 828-1132)) [µM]	IC50 [1] [µM]	IC50 Ratio JAK2/JAK1 [2]	Structure (SMILES)
0.01 to 0.05	0.005 to 0.02	1.7	N#CCC1(n2cc(-c3c(F)cnc4[nH]ccc34)cn2)CN(C2CCN(C(=O)c3cc(C(F)(F)F)ncc3Cl)CC2)C1 [Example 326, {1-{1-[5-chloro-2-(trifluoromethyl)isonicotinoyl]piperidin-4-yl}-3-[4-(5-fluoro-1H-pyrrolo[2,3-b]pyridin-4-yl)-1H-pyrazol-1-yl]azetidin-3-yl}acetonitrile]
> 0.1	0.02 to 0.03	6.6	N#CCC1(n2cc(-c3ccnc4[nH]ccc34)cn2)CN(C2CCN(C(=O)c3ccnc(C(F)(F)F)n3)CC2)C1 [Example 299, [3-[4-(1H-pyrrolo[2,3-b]pyridin-4-yl)-1H-pyrazol-1-yl]-1-(1-{[2-(trifluoromethyl)pyrimidin-4-yl]carbonyl}piperidin-4-yl)azetidin-3-yl]acetonitrile]
0.01 to 0.05	0.02 to 0.03	1.4	Cc1csc(NC(=O)N2CCC(N3CC(CC#N)(n4cc(-c5ncnc6[nH]ccc56)cn4)C3)CC2)n1 [Example 191, 4-{3-(cyanomethyl)-3-[4-(7H-pyrrolo[2,3-d]pyrimidin-4-yl)-1H-pyrazol-1-yl]azetidin-1-yl}-N-(4-methyl-1,3-thiazol-2-yl)piperidine-1-carboxamide]
0.01 to 0.05	≤ 0.005	21.5	N#CCC1(n2cc(-c3ncnc4[nH]ccc34)cn2)CN(C2CCN(C(=O)c3ccc(-c4ccc(C#N)cc4)c(F)c3)CC2)C1 [Example 118, 4′-[(4-{3-(cyanomethyl)-3-[4-(7H-pyrrolo[2,3-d]pyrimidin-4-yl)-1H-pyrazol-1-yl]azetidin-1-yl}piperidin-1-yl)carbonyl]-2′-fluorobiphenyl-4-carbonitrile]
0.01 to 0.05	≤ 0.005	54.2	CN(C)Cc1cc(C(=O)N2CCC(N3CC(CC#N)(n4cc(-c5ncnc6[nH]ccc56)cn4)C3)CC2)c(F)c(C(F)(F)F)n1 [Example 368, {1-{1-[6-[(dimethylamino)methyl]-3-fluoro-2-(trifluoromethyl)isonicotinoyl]piperidin-4-yl}-3-[4-(7H-pyrrolo[2,3-d]pyrimidin-4-yl)-1H-pyrazol-1-yl]azetidin-3-yl}acetonitrile]
≤ 0.01	≤ 0.005	4.7	N#CCC1(n2cc(-c3c(F)cnc4[nH]ccc34)cn2)CN(C2CCN(C(=O)c3ccc(O)c(F)c3)CC2)C1 [Example 322, {1-[1-(3-fluoro-4-hydroxybenzoyl)piperidin-4-yl]-3-[4-(5-fluoro-1H-pyrrolo[2,3-b]pyridin-4-yl)-1H-pyrazol-1-yl]azetidin-3-yl}acetonitrile]
0.01 to 0.05	≤ 0.005	4.9	COc1cccc(NC(=O)N2CCC(N3CC(CC#N)(n4cc(-c5ncnc6[nH]ccc56)cn4)C3)CC2)c1 [Example 181, 4-{3-(cyanomethyl)-3-[4-(7H-pyrrolo[2,3-d]pyrimidin-4-yl)-1H-pyrazol-1-yl]azetidin-1-yl}-N-(3-methoxyphenyl)piperidine-1-carboxamide]
0.01 to 0.05	≤ 0.005	3.8	CS(=O)(=O)N1CCC(N2CC(CC#N)(n3cc(-c4ccnc5[nH]ccc45)cn3)C2)CC1 [Example 351, {1-[1-(Methylsulfonyl)piperidin-4-yl]-3-[4-(1H-pyrrolo[2,3-b]pyridin-4-yl)-1H-pyrazol-1-yl]azetidin-3-yl}acetonitrile]
> 0.1	0.005 to 0.02	11.1	N#CCC1(n2cc(-c3ccnc4[nH]ccc34)cn2)CN(C2CCN(C(=O)Nc3ccc(C#N)cc3C(F)(F)F)CC2)C1 [Example 311, 4-{3-(cyanomethyl)-3-[4-(1H-pyrrolo[2,3-b]pyridin-4-yl)-1H-pyrazol-1-yl]azetidin-1-yl}-N-[4-cyano-2-(trifluoromethyl)phenyl]piperidine-1-carboxamide]
≤ 0.01	≤ 0.005	2.4	N#CCC1(n2cc(-c3c(C#N)cnc4[nH]ccc34)cn2)CN(C2CCN(C(=O)c3cc(Br)ccc3Br)CC2)C1 [Example 335, 4-(1-{3-(cyanomethyl)-1-[1-(2,5-dibromobenzoyl)piperidin-4-yl]azetidin-3-yl}-1H-pyrazol-4-yl)-1H-pyrrolo[2,3-b]pyridine-5-carbonitrile]
0.01 to 0.05	≤ 0.005	12.1	N#CCC1(n2cc(-c3ncnc4[nH]ccc34)cn2)CN(C2CCN(C(=O)Nc3c(Cl)cccc3Cl)CC2)C1 [Example 160, 4-{3-(cyanomethyl)-3-[4-(7H-pyrrolo[2,3-d]pyrimidin-4-yl)-1H-pyrazol-1-yl]azetidin-1-yl}-N-(2,6-dichlorophenyl)piperidine-1-carboxamide]
0.01 to 0.05	≤ 0.005	5.7	N#CCC1(n2cc(-c3ncnc4[nH]ccc34)cn2)CN(C2CCN(C(=O)c3cc(C(F)(F)F)ncc3Cl)CC2)C1 [Example 342, {1-{1-[5-Chloro-2-(trifluoromethyl)isonicotinoyl]piperidin-4-yl}-3-[4-(7H-pyrrolo[2,3-d]pyrimidin-4-yl)-1H-pyrazol-1-yl]azetidin-3-yl}acetonitrile]
0.01 to 0.05	≤ 0.005	13.6	N#CCC1(n2cc(-c3ncnc4[nH]ccc34)cn2)CN(C2CCN(C(=O)Nc3ccc(F)cc3Cl)CC2)C1 [Example 162, N-(2-chloro-4-fluorophenyl)-4-{3-(cyanomethyl)-3-[4-(7H-pyrrolo[2,3-d]pyrimidin-4-yl)-1H-pyrazol-1-yl]azetidin-1-yl}piperidine-1-carboxamide]
≤ 0.01	≤ 0.005	4.3	N#CCC1(n2cc(-c3ncnc4[nH]ccc34)cn2)CN(C2CCN(Cc3cc(Cl)cc(Cl)c3)CC2)C1 [Example 210, {1-[1-(3,5-dichlorobenzyl)piperidin-4-yl]-3-[4-(7H-pyrrolo[2,3-d]pyrimidin-4-yl)-1H-pyrazol-1-yl]azetidin-3-yl}acetonitrile]
0.01 to 0.05	≤ 0.005	5.5	N#CCC1(n2cc(-c3ncnc4[nH]ccc34)cn2)CN(C2CCN(C(=O)Nc3ccccc3F)CC2)C1 [Example 169, 4-{3-(cyanomethyl)-3-[4-(7H-pyrrolo[2,3-d]pyrimidin-4-yl)-1H-pyrazol-1-yl]azetidin-1-yl}-N-(2-fluorophenyl)piperidine-1-carboxamide]
0.01 to 0.05	≤ 0.005	3.1	N#CCC1(n2cc(-c3ncnc4[nH]ccc34)cn2)CN(C2CCN(C(=O)c3c(F)cccc3C(F)(F)F)CC2)C1 [Example 45, {1-{1-[2-fluoro-6-(trifluoromethyl)benzoyl]piperidin-4-yl}-3-[4-(7H-pyrrolo[2,3-d]pyrimidin-4-yl)-1H-pyrazol-1-yl]azetidin-3-yl}acetonitrile]
0.01 to 0.05	≤ 0.005	6.7	N#CCC1(n2cc(-c3c(F)cnc4[nH]ccc34)cn2)CN(C2CCN(C(=O)Nc3cnccc3C(F)(F)F)CC2)C1 [Example 330, 4-{3-(cyanomethyl)-3-[4-(5-fluoro-1H-pyrrolo[2,3-b]pyridin-4-yl)-1H-pyrazol-1-yl]azetidin-1-yl}-N-[4-(trifluoromethyl)pyridin-3-yl]piperidine-1-carboxamide]
0.05 to 0.1	≤ 0.005	10.4	N#CCC1(n2cc(-c3ccnc4[nH]ccc34)cn2)CN(C2CCN(C(=O)Nc3cnccc3C(F)(F)F)CC2)C1 [Example 308, 4-{3-(cyanomethyl)-3-[4-(1H-pyrrolo[2,3-b]pyridin-4-yl)-1H-pyrazol-1-yl]azetidin-1-yl}-N-[4-(trifluoromethyl)pyridin-3-yl]piperidine-1-carboxamide]
0.01 to 0.05	0.005 to 0.02	3.2	N#CCC1(n2cc(-c3ncnc4[nH]ccc34)cn2)CN(C2CCN(C(=O)c3cccc(OC(F)(F)F)c3)CC2)C1 [Example 21, (3-[4-(7H-pyrrolo[2,3-d]pyrimidin-4-yl)-1H-pyrazol-1-yl]-1-{1-[3-(trifluoromethoxy)benzoyl]piperidin-4-yl}azetidin-3-yl)acetonitrile]
≤ 0.01	≤ 0.005	3.9	N#CCC1(n2cc(-c3ncnc4[nH]ccc34)cn2)CN(C2CCN(Cc3c(F)ccc(Cl)c3F)CC2)C1 [Example 228, {1-[1-(3-chloro-2,6-difluorobenzyl)piperidin-4-yl]-3-[4-(7H-pyrrolo[2,3-d]pyrimidin-4-yl)-1H-pyrazol-1-yl]azetidin-3-yl}acetonitrile]
0.01 to 0.05	≤ 0.005	6.8	COc1ccc2nc(Cl)c(CN3CCC(N4CC(CC#N)(n5cc(-c6ncnc7[nH]ccc67)cn5)C4)CC3)cc2c1 [Example 238, {1-{1-[(2-chloro-6-methoxyquinolin-3-yl)methyl]piperidin-4-yl}-3-[4-(7H-pyrrolo[2,3-d]pyrimidin-4-yl)-1H-pyrazol-1-yl]azetidin-3-yl}acetonitrile]
0.01 to 0.05	0.005 to 0.02	3.0	Cc1nc(NC(=O)N2CCC(N3CC(CC#N)(n4cc(-c5ncnc6[nH]ccc56)cn4)C3)CC2)sc1C [Example 192, 4-{3-(cyanomethyl)-3-[4-(7H-pyrrolo[2,3-d]pyrimidin-4-yl)-1H-pyrazol-1-yl]azetidin-1-yl}-N-(4,5-dimethyl-1,3-thiazol-2-yl)piperidine-1-carboxamide]
